In US20220257557A1, “PHARMACEUTICAL COMPOSITION FOR PREVENTING OR TREATING NEUROLOGICAL DISEASES” (GLACEUM INC., priority 2019, published 2022):

How the values were obtained:
[1] = molecular target: T1, rePON1 (PON1, paraoxonase 1) (Homo sapiens, UniProt P27169); test: Prevention of inhibition of PON1 activity by oxidized linolenic acid (TBBL substrate); type: biochemical; details: for activity at 30 µM: 30 μM compound with rePON1 30 min, then oxidized linolenic acid 2 h, TBBL substrate, normal control 100, negative control 73.64
T1 construct: purchased Thermo Corp. RP-75678
T1 sequence (P27169 whole entry): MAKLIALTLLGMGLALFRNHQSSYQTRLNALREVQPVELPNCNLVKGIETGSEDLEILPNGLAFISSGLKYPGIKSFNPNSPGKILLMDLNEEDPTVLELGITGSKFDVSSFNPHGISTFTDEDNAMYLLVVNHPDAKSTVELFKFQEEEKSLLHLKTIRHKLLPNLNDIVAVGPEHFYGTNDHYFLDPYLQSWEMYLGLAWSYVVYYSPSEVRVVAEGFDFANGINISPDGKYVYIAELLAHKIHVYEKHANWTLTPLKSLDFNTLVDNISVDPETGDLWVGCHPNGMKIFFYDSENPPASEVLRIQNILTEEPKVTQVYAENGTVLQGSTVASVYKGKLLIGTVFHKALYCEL
Method: Based on the fact that the activity of PON1 is inhibited when PON1 is treated with oxidized linolenic acid, an experiment was conducted to confirm the prevention of inhibition of PON1 activity. The activity of PON1 was measured using TBBL (5-thiobutyl butyrolactones) as a substrate.
Specifically, after 9.6 μl of 50 mM Tris-HCl containing 1 mM CaCl2 was added to each of […] Eppendorf tubes, 0.2 μl of each of the compounds of Formulas III-1, IV-1, V-1, IV-2, V-2, II-1, IV-3, V-3, III-2, IV-4, V-4, II-2 and III-3 and glabridine was added to each tube so that the concentration thereof was 30 μM. 0.2 μl of rePON1 (RP-75678, Thermo Corp.) was added to each of the 12 tubes and mixed. Thereafter, each of the mixtures was allowed to react at room temperature for 30 minutes, and 0.5 μl of 1 mM oxidized linolenic acid (OX-LA) dissolved in DMSO was added thereto in order to inhibit rePON1 activity, followed by reaction at room temperature for 2 hours, thus preparing solutions (I).
25 μl of 0.5 mM DTNB dissolved in 50 mM Tris-HCl containing 1 mM CaCl2 was dispensed into each well of a 384-well plate, and then 10 μl of each of the solutions (I) was dispensed into each well, and 20 μl of 2 mM TBBL dissolved in 50 mM Tris-HCl containing 1 mM CaCl2 was added to each well, thus preparing samples. The absorbance of each of the samples at 420 nm was measured using a spectrometer (SpectraMax M2) at 37° C. every 2 minutes for 1 hour.
In addition, a negative control was prepared in the same manner as the above-described method, except that, for the preparation of a solution, 0.2 μl of DMSO was added instead of the compounds of Formulas III-1, IV-1, V-1, IV-2, V-2, II-1, IV-3, V-3, III-2, IV-4, V-4, II-2 and III-3 and glabridin. Furthermore, a normal control was prepared in the same manner as the above-described method, except that, for the preparation of a solution, 0.2 μl of DMSO was added instead of the above-described compounds and glabridin and that oxidized linolenic acid was not added. The absorbance of each of the negative control and the normal control was measured.
Using SoftMax Pro software, the activity of PON1 was calculated from the absorbance using the following Equation 1, and the results are shown in Table 1 below.
Activity=(absorbancesample−absorbanceblank)/(absorbancePON1−absorbanceblank)*100 [Equation 1]

RAW264.7 cells [2] = test: IL-1β, IL-6 and TNF-α mRNA expression after LPS (RT-PCR); type: cell-based; details: 3 h pretreatment (Table 3 amounts), LPS 1 μg/ml 6 h
Method: (§1) RAW264.7 cells or BV2 cells (5×10^5 cells/well) were dispensed in DMEM containing 10% heat-inactivated FBS, 10 IU/mL penicillin G, 100 μg/mL streptomycin and 2 mM L-glutamine and cultured in a 5% CO2 incubator at a temperature of 37° C.
(§2) The compound of Formula III-3, III-4, V-3, III-1, IV-1, V-1, IV-2, V-2 or II-2 was added to the RAW264.7 cells or BV2 cells, and the toxicities of the compounds were determined by MTT assay.
(§3) The pretreated cells of Experimental Example 4-1 were treated with 1 μg/ml of LPS for 6 hours, and then the mRNA expression level of the cytokine IL-1β, IL-6 or TNF-α produced in the inflammatory response was analyzed using RT-PCR.

BV2 cells [3] = test: as above; type: cell-based; details: 3 h pretreatment (Table 3 amounts), LPS 1 μg/ml 6 h
Method: as §1, §2, §3

RAW264.7 cells [4] = test: NO and PGE2 production after LPS; type: cell-based; details: 3 h pretreatment (Table 3 amounts), LPS 1 μg/ml 24 h
Method: as §1, §2
(§4) The pretreated cells of Experimental Example 4-1 were treated with 1 μg/ml of LPS for 24 hours, and then the expression levels of iNOS and COX-2 were observed through Western blot, and the production of NO and PGE2 was measured.

BV2 cells [5] = test: NO and PGE2 production after LPS; type: cell-based; details: 3 h pretreatment (Table 3 amounts), LPS 1 μg/ml 24 h
Method: as §1, §2, §4

RAW264.7 cells [6] = test: Transcription of NF-κB protein (p65, p50) into nucleus after LPS (Western blot); type: cell-based; details: 3 h pretreatment (Table 3 amounts), LPS 1 μg/ml 1 h
Method: RAW264.7 cells or BV2 cells (5×10^5 cells/well) were dispensed in DMEM containing 10% heat-inactivated FBS, 10 IU/mL penicillin G, 100 μg/mL streptomycin and 2 mM L-glutamine and cultured in a 5% CO2 incubator at a temperature of 37° C. […]
(§5) The pretreated cells of Experimental Example 4-1 were treated with 1 μg/ml of LPS for 1 hour, and then the level of transcription of NF-κB protein into the nucleus of each of p65 and p50 was analyzed through Western blot.

RAW264.7 cells [7] = test: iNOS and COX-2 expression after LPS (Western blot); type: cell-based; details: 3 h pretreatment (Table 3 amounts), LPS 1 μg/ml 24 h
Method: as §1, §2, §4

BV2 cells [8] = test: iNOS and COX-2 expression after LPS (Western blot); type: cell-based; details: 3 h pretreatment (Table 3 amounts), LPS 1 μg/ml 24 h
Method: as §1, §2, §4

BV2 cells [9] = test: Transcription of NF-κB protein (p65, p50) into nucleus after LPS (Western blot); type: cell-based; details: 3 h pretreatment (Table 3 amounts), LPS 1 μg/ml 1 h
Method: as §1, §2, §5

Structure (SMILES) | activity at 30 µM [1] [%] | mRNA expression level of IL-1β (RAW264.7 cells [2]) | mRNA expression level of IL-6 (RAW264.7 cells [2]) | mRNA expression level of TNF-α (RAW264.7 cells [2]) | mRNA expression level of IL-1β (BV2 cells [3]) | mRNA expression level of IL-6 (BV2 cells [3]) | mRNA expression level of TNF-α (BV2 cells [3]) | production of NO (RAW264.7 cells [4]) | production of PGE2 (RAW264.7 cells [4]) | production of NO (BV2 cells [5]) | production of PGE2 (BV2 cells [5]) | level of transcription of NF-κB protein into the nucleus, p50 (RAW264.7 cells [6]) | level of transcription of NF-κB protein into the nucleus, p65 (RAW264.7 cells [6]) | expression level of COX-2 (RAW264.7 cells [7]) | expression level of iNOS (RAW264.7 cells [7]) | expression level of COX-2 (BV2 cells [8]) | expression level of iNOS (BV2 cells [8]) | level of transcription of NF-κB protein into the nucleus, p50 (BV2 cells [9]) | level of transcription of NF-κB protein into the nucleus, p65 (BV2 cells [9]) | further results
CCCc1ccc([C@H]2COc3c(ccc4c3CCC(C)(C)O4)C2)c(O)c1 [Formula V-3, (S)-2-(8,8-dimethyl-2,3,4,8,9,10-hexahydropyrano[2,3-f]chromen-3-yl)-5-propylphenol] | 95.1 | concentration-dependently decreased | concentration-dependently decreased | concentration-dependently decreased | concentration-dependently decreased | concentration-dependently decreased | concentration-dependently decreased | concentration-dependently decreased | concentration-dependently decreased | concentration-dependently decreased | concentration-dependently decreased | concentration-dependently decreased | concentration-dependently decreased | concentration-dependently decreased | concentration-dependently decreased | concentration-dependently decreased | concentration-dependently decreased | concentration-dependently decreased | concentration-dependently decreased | extent to which inhibition of rePON1 activity was prevented, compared with glabridin ([1]; compound 30 μM vs glabridin 30 μM, result in words): greater; inhibition of rePON1 activity by oxidized linolenic acid ([1]; compound 30 μM, result in words): prevented
CC1(C)C=Cc2c(ccc3c2OC[C@@H](c2ccc(O)cc2O)C3)O1 [Glabridin, glabridin, reference compound] | 82.8 | did not decrease | did not decrease | did not decrease | did not decrease | did not decrease | did not decrease | did not decrease | did not decrease | did not decrease | did not decrease | did not decrease | did not decrease | did not decrease | did not decrease | did not decrease | did not decrease | did not decrease | did not decrease | 
